Active and inactive are the calls of the source.
Target: T1, General transcription and DNA repair factor IIH helicase subunit XPD (Homo sapiens, UniProt P18074)
T1 sequence (P18074 whole entry): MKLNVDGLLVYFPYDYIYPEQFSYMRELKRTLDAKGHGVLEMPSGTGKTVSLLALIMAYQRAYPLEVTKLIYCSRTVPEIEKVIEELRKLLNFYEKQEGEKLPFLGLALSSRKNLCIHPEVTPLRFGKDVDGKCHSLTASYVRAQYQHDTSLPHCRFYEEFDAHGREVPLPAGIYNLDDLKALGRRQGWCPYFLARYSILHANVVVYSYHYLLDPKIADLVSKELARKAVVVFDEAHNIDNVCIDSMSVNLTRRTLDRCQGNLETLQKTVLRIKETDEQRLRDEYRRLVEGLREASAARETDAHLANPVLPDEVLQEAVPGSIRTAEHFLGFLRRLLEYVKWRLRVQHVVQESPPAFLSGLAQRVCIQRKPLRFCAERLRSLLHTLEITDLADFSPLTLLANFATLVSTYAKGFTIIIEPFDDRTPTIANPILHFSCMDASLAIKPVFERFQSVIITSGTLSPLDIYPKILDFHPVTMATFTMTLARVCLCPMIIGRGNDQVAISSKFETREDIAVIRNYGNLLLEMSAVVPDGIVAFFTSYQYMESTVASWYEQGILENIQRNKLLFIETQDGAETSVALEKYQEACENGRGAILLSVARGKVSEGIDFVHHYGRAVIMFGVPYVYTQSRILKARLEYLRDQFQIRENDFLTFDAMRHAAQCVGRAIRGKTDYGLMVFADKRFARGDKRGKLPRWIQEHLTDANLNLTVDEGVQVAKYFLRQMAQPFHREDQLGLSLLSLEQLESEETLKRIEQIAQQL
Details: read-out: Kd apparent; k-562, colo 205, sk-n-be(2) and mv-4-11
Note: in the data inactive means no Kd found up to 30 µM.

Structure (SMILES)	Kd
C1=C/COCc2cc(ccc2OCCN2CCCC2)Nc2nccc(n2)-c2cccc(c2)COC/1 [PACRITINIB]	> 30 µM (inactive)
Cc1ccc(-n2nc(C(C)(C)C)cc2NC(=O)NCc2cc(F)ccc2Oc2ccc3c(cnn3CCO)c2)cc1 [PEXMETINIB]	> 30 µM (inactive)
C=CC(=O)N1CCC(Oc2cc3c(Nc4ccc(Cl)c(Cl)c4F)ncnc3cc2OC)CC1 [POZIOTINIB]	> 30 µM (inactive)
CN(C)C(=O)c1cc2cnc(Nc3ccc(N4CCNCC4)cn3)nc2n1C1CCCC1 [RIBOCICLIB]	> 30 µM (inactive)
C[C@@H](c1ccc2nccn2c1)n1nnc2ncc(-c3cnn(C)c3)nc21 [SAVOLITINIB]	> 30 µM (inactive)

Target: Myosin light chain kinase, smooth muscle (Homo sapiens, UniProt Q15746)
Details: not given

Sequence of Myosin light chain kinase, smooth muscle (Q15746 whole entry): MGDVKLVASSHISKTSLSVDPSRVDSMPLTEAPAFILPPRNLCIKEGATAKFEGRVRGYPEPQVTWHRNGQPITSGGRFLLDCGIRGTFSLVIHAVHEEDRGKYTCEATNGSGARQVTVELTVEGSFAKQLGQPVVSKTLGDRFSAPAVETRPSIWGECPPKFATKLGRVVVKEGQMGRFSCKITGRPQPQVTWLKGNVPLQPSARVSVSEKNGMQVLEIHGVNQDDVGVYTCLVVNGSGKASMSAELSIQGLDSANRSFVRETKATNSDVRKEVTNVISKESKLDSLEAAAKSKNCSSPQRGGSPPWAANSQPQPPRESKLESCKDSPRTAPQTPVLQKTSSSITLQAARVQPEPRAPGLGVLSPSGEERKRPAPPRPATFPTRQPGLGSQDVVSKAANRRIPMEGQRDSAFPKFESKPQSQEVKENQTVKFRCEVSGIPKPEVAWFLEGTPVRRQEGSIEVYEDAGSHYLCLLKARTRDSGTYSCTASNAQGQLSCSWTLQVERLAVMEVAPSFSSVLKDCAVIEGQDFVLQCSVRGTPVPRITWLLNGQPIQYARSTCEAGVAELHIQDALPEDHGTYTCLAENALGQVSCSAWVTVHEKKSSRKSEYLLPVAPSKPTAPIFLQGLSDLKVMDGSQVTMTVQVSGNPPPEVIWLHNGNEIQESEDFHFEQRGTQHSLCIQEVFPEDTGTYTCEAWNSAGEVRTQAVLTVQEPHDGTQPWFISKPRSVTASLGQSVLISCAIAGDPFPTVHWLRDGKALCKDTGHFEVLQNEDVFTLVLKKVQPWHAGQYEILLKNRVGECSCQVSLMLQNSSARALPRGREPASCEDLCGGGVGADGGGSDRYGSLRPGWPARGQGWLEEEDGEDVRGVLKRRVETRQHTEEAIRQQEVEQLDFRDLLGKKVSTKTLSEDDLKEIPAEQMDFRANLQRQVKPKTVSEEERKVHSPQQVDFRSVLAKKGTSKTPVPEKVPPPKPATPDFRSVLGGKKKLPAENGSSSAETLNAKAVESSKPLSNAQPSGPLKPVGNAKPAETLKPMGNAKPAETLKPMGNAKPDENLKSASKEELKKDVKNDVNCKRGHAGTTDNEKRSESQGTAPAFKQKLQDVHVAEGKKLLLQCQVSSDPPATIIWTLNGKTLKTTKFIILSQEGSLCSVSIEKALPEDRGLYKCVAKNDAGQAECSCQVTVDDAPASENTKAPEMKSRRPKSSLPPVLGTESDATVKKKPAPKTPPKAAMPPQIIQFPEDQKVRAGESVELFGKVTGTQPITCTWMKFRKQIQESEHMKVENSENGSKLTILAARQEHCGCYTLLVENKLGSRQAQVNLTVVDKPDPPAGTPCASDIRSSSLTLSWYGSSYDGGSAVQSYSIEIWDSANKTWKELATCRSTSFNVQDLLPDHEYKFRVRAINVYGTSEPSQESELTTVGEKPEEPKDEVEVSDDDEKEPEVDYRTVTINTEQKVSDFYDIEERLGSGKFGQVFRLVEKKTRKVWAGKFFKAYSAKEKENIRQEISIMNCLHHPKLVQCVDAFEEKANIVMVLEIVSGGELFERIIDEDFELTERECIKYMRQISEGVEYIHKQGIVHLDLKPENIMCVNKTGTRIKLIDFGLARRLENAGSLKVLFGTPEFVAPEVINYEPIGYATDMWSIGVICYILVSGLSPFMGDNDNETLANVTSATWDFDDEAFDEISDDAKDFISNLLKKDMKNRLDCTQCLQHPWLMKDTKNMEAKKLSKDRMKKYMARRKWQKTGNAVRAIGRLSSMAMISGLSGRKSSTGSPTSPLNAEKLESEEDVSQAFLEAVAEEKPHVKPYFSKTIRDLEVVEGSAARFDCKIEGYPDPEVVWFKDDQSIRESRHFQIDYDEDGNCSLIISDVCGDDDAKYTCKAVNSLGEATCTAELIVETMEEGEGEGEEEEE

Structure (SMILES)	Kd
C1=C/COCc2cc(ccc2OCCN2CCCC2)Nc2nccc(n2)-c2cccc(c2)COC/1 [PACRITINIB]	> 30 µM (inactive)
Cc1ccc(-n2nc(C(C)(C)C)cc2NC(=O)NCc2cc(F)ccc2Oc2ccc3c(cnn3CCO)c2)cc1 [PEXMETINIB]	0.081 µM
C=CC(=O)N1CCC(Oc2cc3c(Nc4ccc(Cl)c(Cl)c4F)ncnc3cc2OC)CC1 [POZIOTINIB]	> 30 µM (inactive)
CN(C)C(=O)c1cc2cnc(Nc3ccc(N4CCNCC4)cn3)nc2n1C1CCCC1 [RIBOCICLIB]	> 30 µM (inactive)
C[C@@H](c1ccc2nccn2c1)n1nnc2ncc(-c3cnn(C)c3)nc21 [SAVOLITINIB]	> 30 µM (inactive)

Target: Mitogen-activated protein kinase 1 (Homo sapiens, UniProt P28482)
Details: not given

Sequence of Mitogen-activated protein kinase 1 (P28482 whole entry): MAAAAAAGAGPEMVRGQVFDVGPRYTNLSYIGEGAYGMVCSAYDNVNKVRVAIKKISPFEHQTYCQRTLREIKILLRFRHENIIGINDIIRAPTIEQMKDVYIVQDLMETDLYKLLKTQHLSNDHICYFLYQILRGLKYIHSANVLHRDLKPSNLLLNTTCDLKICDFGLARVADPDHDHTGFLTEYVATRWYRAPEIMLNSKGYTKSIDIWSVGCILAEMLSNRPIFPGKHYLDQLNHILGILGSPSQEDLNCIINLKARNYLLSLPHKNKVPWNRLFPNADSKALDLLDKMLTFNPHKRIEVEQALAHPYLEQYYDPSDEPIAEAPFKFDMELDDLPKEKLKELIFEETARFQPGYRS

Structure (SMILES)	Kd
C1=C/COCc2cc(ccc2OCCN2CCCC2)Nc2nccc(n2)-c2cccc(c2)COC/1 [PACRITINIB]	> 30 µM (inactive)
Cc1ccc(-n2nc(C(C)(C)C)cc2NC(=O)NCc2cc(F)ccc2Oc2ccc3c(cnn3CCO)c2)cc1 [PEXMETINIB]	> 30 µM (inactive)
C=CC(=O)N1CCC(Oc2cc3c(Nc4ccc(Cl)c(Cl)c4F)ncnc3cc2OC)CC1 [POZIOTINIB]	> 30 µM (inactive)
CN(C)C(=O)c1cc2cnc(Nc3ccc(N4CCNCC4)cn3)nc2n1C1CCCC1 [RIBOCICLIB]	> 30 µM (inactive)
C[C@@H](c1ccc2nccn2c1)n1nnc2ncc(-c3cnn(C)c3)nc21 [SAVOLITINIB]	> 30 µM (inactive)

Target: Bone morphogenetic protein receptor type-1B (Homo sapiens, UniProt O00238)
Details: not given

Structure (SMILES)	Kd
C1=C/COCc2cc(ccc2OCCN2CCCC2)Nc2nccc(n2)-c2cccc(c2)COC/1 [PACRITINIB]	> 30 µM (inactive)
Cc1ccc(-n2nc(C(C)(C)C)cc2NC(=O)NCc2cc(F)ccc2Oc2ccc3c(cnn3CCO)c2)cc1 [PEXMETINIB]	> 30 µM (inactive)
C=CC(=O)N1CCC(Oc2cc3c(Nc4ccc(Cl)c(Cl)c4F)ncnc3cc2OC)CC1 [POZIOTINIB]	> 30 µM (inactive)
CN(C)C(=O)c1cc2cnc(Nc3ccc(N4CCNCC4)cn3)nc2n1C1CCCC1 [RIBOCICLIB]	> 30 µM (inactive)
C[C@@H](c1ccc2nccn2c1)n1nnc2ncc(-c3cnn(C)c3)nc21 [SAVOLITINIB]	> 30 µM (inactive)

Target: RAC-gamma serine/threonine-protein kinase (Homo sapiens, UniProt Q9Y243)
Details: not given

Sequence of RAC-gamma serine/threonine-protein kinase (Q9Y243 whole entry): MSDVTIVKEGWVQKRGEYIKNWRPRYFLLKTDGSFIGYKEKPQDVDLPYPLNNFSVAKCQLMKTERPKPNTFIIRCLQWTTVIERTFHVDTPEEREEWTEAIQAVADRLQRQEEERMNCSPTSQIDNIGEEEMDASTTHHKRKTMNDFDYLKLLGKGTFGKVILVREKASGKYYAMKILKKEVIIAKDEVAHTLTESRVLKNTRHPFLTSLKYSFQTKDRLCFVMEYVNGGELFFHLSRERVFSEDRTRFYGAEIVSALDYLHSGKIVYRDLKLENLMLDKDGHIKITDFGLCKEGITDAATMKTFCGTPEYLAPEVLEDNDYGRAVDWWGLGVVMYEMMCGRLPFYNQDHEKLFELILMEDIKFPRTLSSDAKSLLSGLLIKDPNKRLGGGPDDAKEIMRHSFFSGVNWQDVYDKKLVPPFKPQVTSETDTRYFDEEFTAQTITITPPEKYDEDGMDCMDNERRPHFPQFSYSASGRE

Structure (SMILES)	Kd
C1=C/COCc2cc(ccc2OCCN2CCCC2)Nc2nccc(n2)-c2cccc(c2)COC/1 [PACRITINIB]	> 30 µM (inactive)
Cc1ccc(-n2nc(C(C)(C)C)cc2NC(=O)NCc2cc(F)ccc2Oc2ccc3c(cnn3CCO)c2)cc1 [PEXMETINIB]	> 30 µM (inactive)
C=CC(=O)N1CCC(Oc2cc3c(Nc4ccc(Cl)c(Cl)c4F)ncnc3cc2OC)CC1 [POZIOTINIB]	> 30 µM (inactive)
CN(C)C(=O)c1cc2cnc(Nc3ccc(N4CCNCC4)cn3)nc2n1C1CCCC1 [RIBOCICLIB]	> 30 µM (inactive)

Target: T2, ATP-dependent RNA helicase DDX1 (Homo sapiens, UniProt Q92499)
T2 sequence (Q92499 whole entry): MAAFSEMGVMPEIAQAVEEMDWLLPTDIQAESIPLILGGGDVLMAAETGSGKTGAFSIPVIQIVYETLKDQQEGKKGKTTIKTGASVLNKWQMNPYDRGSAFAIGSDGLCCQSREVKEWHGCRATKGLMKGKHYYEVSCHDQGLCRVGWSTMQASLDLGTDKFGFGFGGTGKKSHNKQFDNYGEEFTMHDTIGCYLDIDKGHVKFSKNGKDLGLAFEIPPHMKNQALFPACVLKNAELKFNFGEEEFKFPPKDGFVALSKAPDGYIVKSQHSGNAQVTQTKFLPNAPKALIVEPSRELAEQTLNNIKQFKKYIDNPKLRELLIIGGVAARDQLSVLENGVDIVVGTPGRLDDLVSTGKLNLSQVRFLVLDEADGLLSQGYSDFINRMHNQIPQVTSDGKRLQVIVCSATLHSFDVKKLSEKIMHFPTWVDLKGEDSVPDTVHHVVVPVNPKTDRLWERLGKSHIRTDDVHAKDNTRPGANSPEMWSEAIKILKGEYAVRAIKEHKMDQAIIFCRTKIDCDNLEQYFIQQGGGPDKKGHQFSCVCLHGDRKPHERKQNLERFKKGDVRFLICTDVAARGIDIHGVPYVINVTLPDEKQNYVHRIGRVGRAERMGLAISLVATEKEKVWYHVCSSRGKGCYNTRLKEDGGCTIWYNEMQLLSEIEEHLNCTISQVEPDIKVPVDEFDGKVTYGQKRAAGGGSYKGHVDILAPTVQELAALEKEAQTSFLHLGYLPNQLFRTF
Details: not given

Structure (SMILES)	Kd
C1=C/COCc2cc(ccc2OCCN2CCCC2)Nc2nccc(n2)-c2cccc(c2)COC/1 [PACRITINIB]	> 30 µM (inactive)
Cc1ccc(-n2nc(C(C)(C)C)cc2NC(=O)NCc2cc(F)ccc2Oc2ccc3c(cnn3CCO)c2)cc1 [PEXMETINIB]	> 30 µM (inactive)
CN(C)C(=O)c1cc2cnc(Nc3ccc(N4CCNCC4)cn3)nc2n1C1CCCC1 [RIBOCICLIB]	> 30 µM (inactive)
C[C@@H](c1ccc2nccn2c1)n1nnc2ncc(-c3cnn(C)c3)nc21 [SAVOLITINIB]	> 30 µM (inactive)

Target: Mitogen-activated protein kinase kinase kinase 20 (Homo sapiens, UniProt Q9NYL2)
Details: not given

Structure (SMILES)	Kd
Cc1ccc(-n2nc(C(C)(C)C)cc2NC(=O)NCc2cc(F)ccc2Oc2ccc3c(cnn3CCO)c2)cc1 [PEXMETINIB]	1.25 µM (active)
C=CC(=O)N1CCC(Oc2cc3c(Nc4ccc(Cl)c(Cl)c4F)ncnc3cc2OC)CC1 [POZIOTINIB]	> 30 µM (inactive)
CN(C)C(=O)c1cc2cnc(Nc3ccc(N4CCNCC4)cn3)nc2n1C1CCCC1 [RIBOCICLIB]	> 30 µM (inactive)
C[C@@H](c1ccc2nccn2c1)n1nnc2ncc(-c3cnn(C)c3)nc21 [SAVOLITINIB]	> 30 µM (inactive)

Target: U5 small nuclear ribonucleoprotein 200 kDa helicase (Homo sapiens, UniProt O75643)
Details: not given

Sequence of U5 small nuclear ribonucleoprotein 200 kDa helicase (O75643 whole entry): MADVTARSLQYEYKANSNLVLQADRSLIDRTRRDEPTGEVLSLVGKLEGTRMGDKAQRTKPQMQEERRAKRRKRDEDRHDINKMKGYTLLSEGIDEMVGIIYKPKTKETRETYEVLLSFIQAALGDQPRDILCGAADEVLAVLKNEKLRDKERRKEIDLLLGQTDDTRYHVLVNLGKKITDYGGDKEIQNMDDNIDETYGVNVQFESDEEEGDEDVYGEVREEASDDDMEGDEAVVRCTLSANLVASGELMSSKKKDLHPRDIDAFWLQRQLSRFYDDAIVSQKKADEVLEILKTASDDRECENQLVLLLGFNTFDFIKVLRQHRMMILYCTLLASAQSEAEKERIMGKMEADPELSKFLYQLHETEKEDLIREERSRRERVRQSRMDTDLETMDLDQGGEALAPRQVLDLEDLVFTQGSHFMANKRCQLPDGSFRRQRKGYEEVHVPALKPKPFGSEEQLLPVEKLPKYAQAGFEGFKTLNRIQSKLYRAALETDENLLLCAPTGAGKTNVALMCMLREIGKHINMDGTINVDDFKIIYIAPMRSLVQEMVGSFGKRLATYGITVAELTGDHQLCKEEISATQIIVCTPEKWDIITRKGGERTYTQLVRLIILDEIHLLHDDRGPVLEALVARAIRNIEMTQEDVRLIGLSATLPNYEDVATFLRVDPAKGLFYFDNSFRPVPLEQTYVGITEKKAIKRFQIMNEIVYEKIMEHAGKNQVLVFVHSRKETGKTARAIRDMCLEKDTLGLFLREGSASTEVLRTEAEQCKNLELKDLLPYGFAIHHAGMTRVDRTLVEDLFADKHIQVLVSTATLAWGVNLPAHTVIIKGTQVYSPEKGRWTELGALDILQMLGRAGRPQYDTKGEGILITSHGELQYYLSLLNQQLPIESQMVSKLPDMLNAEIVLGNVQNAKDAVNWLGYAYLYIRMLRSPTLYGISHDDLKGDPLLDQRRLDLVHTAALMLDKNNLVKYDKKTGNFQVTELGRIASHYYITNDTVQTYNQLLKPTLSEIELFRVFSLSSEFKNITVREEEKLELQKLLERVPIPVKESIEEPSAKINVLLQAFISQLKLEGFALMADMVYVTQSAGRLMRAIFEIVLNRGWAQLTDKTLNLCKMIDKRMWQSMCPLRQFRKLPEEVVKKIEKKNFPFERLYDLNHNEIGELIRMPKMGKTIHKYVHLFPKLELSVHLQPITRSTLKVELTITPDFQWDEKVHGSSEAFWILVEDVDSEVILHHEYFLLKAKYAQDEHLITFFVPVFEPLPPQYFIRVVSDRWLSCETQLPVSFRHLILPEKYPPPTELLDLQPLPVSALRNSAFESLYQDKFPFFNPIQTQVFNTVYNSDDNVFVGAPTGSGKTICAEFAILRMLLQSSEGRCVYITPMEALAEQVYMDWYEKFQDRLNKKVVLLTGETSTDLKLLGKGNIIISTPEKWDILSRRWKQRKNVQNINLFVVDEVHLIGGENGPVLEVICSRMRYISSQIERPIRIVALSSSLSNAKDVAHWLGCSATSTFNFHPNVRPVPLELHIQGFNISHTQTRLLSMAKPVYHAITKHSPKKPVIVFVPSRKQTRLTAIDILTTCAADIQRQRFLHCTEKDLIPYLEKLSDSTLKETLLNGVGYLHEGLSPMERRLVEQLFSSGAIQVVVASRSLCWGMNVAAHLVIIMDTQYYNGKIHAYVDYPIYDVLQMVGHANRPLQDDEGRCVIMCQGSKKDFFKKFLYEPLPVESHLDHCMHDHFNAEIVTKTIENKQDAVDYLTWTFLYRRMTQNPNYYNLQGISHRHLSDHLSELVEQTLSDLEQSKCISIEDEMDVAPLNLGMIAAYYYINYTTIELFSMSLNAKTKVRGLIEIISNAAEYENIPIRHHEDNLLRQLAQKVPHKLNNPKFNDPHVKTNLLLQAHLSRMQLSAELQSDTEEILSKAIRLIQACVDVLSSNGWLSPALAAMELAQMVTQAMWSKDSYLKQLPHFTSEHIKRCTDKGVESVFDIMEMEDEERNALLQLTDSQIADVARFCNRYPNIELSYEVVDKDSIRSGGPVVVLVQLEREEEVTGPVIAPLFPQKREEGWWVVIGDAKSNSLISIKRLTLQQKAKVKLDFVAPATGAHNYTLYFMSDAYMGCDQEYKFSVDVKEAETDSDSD

Structure (SMILES)	Kd
C1=C/COCc2cc(ccc2OCCN2CCCC2)Nc2nccc(n2)-c2cccc(c2)COC/1 [PACRITINIB]	> 30 µM (inactive)
Cc1ccc(-n2nc(C(C)(C)C)cc2NC(=O)NCc2cc(F)ccc2Oc2ccc3c(cnn3CCO)c2)cc1 [PEXMETINIB]	> 30 µM (inactive)
C=CC(=O)N1CCC(Oc2cc3c(Nc4ccc(Cl)c(Cl)c4F)ncnc3cc2OC)CC1 [POZIOTINIB]	> 30 µM (inactive)
CN(C)C(=O)c1cc2cnc(Nc3ccc(N4CCNCC4)cn3)nc2n1C1CCCC1 [RIBOCICLIB]	> 30 µM (inactive)

Reference: ChEMBL document CHEMBL3991601, “The target landscape of clinical kinase drugs” (Science, 2017)
